Experimental findings from ChEMBL document CHEMBL5532637, “Antimicrobial activity of natural and semi-synthetic carbazole alkaloids” (Eur J Med Chem, 2023) are described below.

≈ marks a conversion by molar mass, not a printed value.

One assay has as its system Salmonella typhimurium. Briefly: Antibacterial activity against Salmonella typhimurium TISTR 292 assessed as inhibition of bacterial growth by two-fold serial dilution method. In kind it is functional, Salmonella enterica subsp. enterica serovar Typhimurium. The note with it: Salmonella enterica.
In assay [1] the test system is Staphylococcus aureus. In words: Antibacterial activity against Staphylococcus aureus TISTR 1466 assessed as inhibition of bacterial growth by two-fold serial dilution method. It is filed as functional.
In assay [2] the test system is Escherichia coli. In words: Antibacterial activity against Escherichia coli TISTR 780 assessed as inhibition of bacterial growth by two-fold serial dilution method. In kind it is functional.
Assay [3] has as its system Staphylococcus aureus. In words: Antibacterial activity against methicillin-resistant Staphylococcus aureus SK1 assessed as inhibition of bacterial growth by two-fold serial dilution method. In kind it is functional.
Assay [4] concerns Staphylococcus aureus. In words: Antibacterial activity against Staphylococcus aureus assessed as inhibition of bacterial growth. In kind it is functional, organism-based.
Assay [5] deals with Staphylococcus epidermidis. In words: Antibacterial activity against Staphylococcus epidermidis assessed as zone of inhibition at 25 ug/ml. It is filed as functional. As to conditions: read-out: IZ.
The subject of another assay is Proteus vulgaris. In words: Antibacterial activity against Proteus vulgaris assessed as zone of inhibition at 25 ug/ml. In kind it is functional. As to conditions: read-out: IZ.
Assay [6] relates to Escherichia coli. In words: Antibacterial activity against Escherichia coli assessed as zone of inhibition at 25 ug/ml. It is filed as functional. As to conditions: read-out: IZ.
The test system of another assay is Pythium. In words: Antifungal activity against Pythium assessed as zone of inhibition incubated upto 9 days by disc diffusion assay. In kind it is functional. The note with it: time <= 9 day.
The subject of assay [7] is Pseudomonas aeruginosa. Briefly: Antibacterial activity against Pseudomonas aeruginosa assessed as inhibition of bacterial growth by broth microdilution method. In kind it is functional.
The test system of assay [8] is Staphylococcus aureus. Briefly: Antibacterial activity against Staphylococcus aureus assessed as inhibition of bacterial growth by broth microdilution method. It is filed as functional. (Broth dilution looks for growth in wells or tubes with falling amounts of substance.)
Assay [9] has as its system Klebsiella pneumoniae. Briefly: Antibacterial activity against Klebsiella pneumoniae assessed as inhibition of bacterial growth by broth microdilution method. It is filed as functional.
Assay [10] deals with Escherichia coli. In words: Antibacterial activity against Escherichia coli assessed as inhibition of bacterial growth by broth microdilution method. In kind it is functional.
The subject of another assay is Candida tropicalis. Briefly: Antifungal activity against Candida tropicalis assessed as inhibition of fungal growth incubated for overnight by MTT based serial dilution method. It is filed as functional.
Assay [11] concerns Candida albicans. Briefly: Antifungal activity against Candida albicans assessed as inhibition of fungal growth incubated for overnight by MTT based serial dilution method. In kind it is functional.
A further assay relates to Aspergillus fumigatus. In words: Antifungal activity against Aspergillus fumigatus assessed as inhibition of fungal growth incubated for overnight by MTT based serial dilution method. In kind it is functional.
The next assay concerns Mucor hiemalis. Briefly: Antifungal activity against Mucor hiemalis DSM 2656 assessed as inhibition of fungal growth incubated for 24 hrs by serial dilution method. In kind it is functional.
Assay [12] concerns Bacillus subtilis. In words: Antibacterial activity against Bacillus subtilis DSM 10 assessed as inhibition of bacterial growth incubated for 24 hrs by serial dilution method. In kind it is functional.
The next assay relates to Rhodotorula glutinis. Briefly: Antifungal activity against Rhodotorula glutinis DSM 10134 assessed as inhibition of fungal growth incubated for 24 hrs by serial dilution method. In kind it is functional.
In assay [13] the test system is Schizosaccharomyces pombe. Briefly: Antifungal activity against Schizosaccharomyces pombe DSM 70572 assessed as inhibition of fungal growth incubated for 24 hrs by serial dilution method. In kind it is functional.
The test system of assay [14] is Staphylococcus aureus. In words: Antibacterial activity against Staphylococcus aureus DSM 346 assessed as inhibition of bacterial growth incubated for 24 hrs by serial dilution method. In kind it is functional.
The subject of assay [15] is Mycolicibacterium smegmatis. Briefly: Antibacterial activity against Mycobacterium smegmatis DSM ATCC 700084 assessed as inhibition of bacterial growth incubated for 24 hrs by serial dilution method. In kind it is functional.
The test system of assay [16] is Bacillus subtilis. In words: Antibacterial activity against Bacillus subtilis assessed as inhibition of bacterial growth by agar well dilution assay. It is filed as functional.
The next assay concerns Pasteurella multocida. Briefly: Antibacterial activity against Pasteurella multocida assessed as inhibition of bacterial growth by agar well dilution assay. In kind it is functional.
For assay [17], the system named is Staphylococcus aureus. In words: Antibacterial activity against Staphylococcus aureus assessed as inhibition of bacterial growth by agar well dilution assay. It is filed as functional.
The test system of assay [18] is Escherichia coli. Briefly: Antibacterial activity against Escherichia coli assessed as inhibition of bacterial growth by agar well dilution assay. In kind it is functional.
Assay [19] relates to Staphylococcus aureus. In words: Antibacterial activity against Staphylococcus aureus assessed as inhibition of bacterial growth incubated for 24 hrs by broth microdilution method. It is filed as functional.
The subject of another assay is Vibrio cholerae. In words: Antibacterial activity against Vibrio cholerae assessed as inhibition of bacterial growth incubated for 24 hrs by broth microdilution method. In kind it is functional.
The subject of the next assay is Shigella flexneri. In words: Antibacterial activity against Shigella flexneri assessed as inhibition of bacterial growth incubated for 24 hrs by broth microdilution method. In kind it is functional.
Assay [20] concerns Bacillus subtilis. In words: Antibacterial activity against Bacillus subtilis assessed as zone of inhibition by agar-disc diffusion method. It is filed as functional.
The test system of assay [21] is Staphylococcus aureus. Briefly: Antibacterial activity against Staphylococcus aureus assessed as zone of inhibition by agar-disc diffusion method. In kind it is functional.
Assay [22] concerns Pseudomonas aeruginosa. In words: Antimicrobial activity against Pseudomonas aeruginosa ATCC 27953 assessed as inhibition of microbial growth incubated for 24 hrs by two-fold serial dilution assay. In kind it is functional.
Assay [23] concerns Staphylococcus aureus. Briefly: Antimicrobial activity against Staphylococcus aureus ATCC 29213 assessed as inhibition of microbial growth incubated for 24 hrs by two-fold serial dilution assay. In kind it is functional.
Assay [24] concerns Candida albicans. Briefly: Antimicrobial activity against Candida albicans NRRL Y-477 assessed as inhibition of microbial growth incubated for 48 hrs by two-fold serial dilution assay. In kind it is functional.
Assay [25] has as its system Klebsiella pneumoniae. In words: Antimicrobial activity against Klebsiella pneumoniae ATCC 13883 assessed as inhibition of microbial growth incubated for 24 hrs by two-fold serial dilution assay. In kind it is functional.
In assay [26] the test system is Escherichia coli. In words: Antimicrobial activity against Escherichia coli ATCC 25922 assessed as inhibition of microbial growth incubated for 24 hrs by two-fold serial dilution assay. It is filed as functional.
A further assay concerns Micrococcus luteus. In words: Antimicrobial activity against Sarcina lutea assessed as inhibition of microbial growth incubated for 24 hrs by two-fold serial dilution assay. In kind it is functional.
A further assay relates to Priestia megaterium. In words: Antimicrobial activity against Bacillus megaterium ATCC 9885 assessed as inhibition of microbial growth incubated for 24 hrs by two-fold serial dilution assay. It is filed as functional.
In assay [27] the test system is Bacillus subtilis. In words: Antimicrobial activity against Bacillus subtilis ATCC 6633 assessed as inhibition of microbial growth incubated for 24 hrs by two-fold serial dilution assay. It is filed as functional.

By MIC is commonly meant the least concentration at which growth counts as inhibited. Take `COC(=O)c1cc(O)c2[nH]c3ccc4c(c3c2c1)C=CC(C)(C)O4`: the minimum inhibitory concentration (MIC) with Salmonella typhimurium, in the assay with Staphylococcus aureus [1], in the assay with Escherichia coli [2] and in the assay with Staphylococcus aureus [3] was 64 µg/mL (≈ 198 µM) each time.

Consider `CC(C)=CCc1c(O)ccc2[nH]c3cc(O)c(C=O)cc3c12`, for which the minimal inhibitory concentration (MIC) with Salmonella typhimurium, in the assay with Staphylococcus aureus [1], in the assay on Escherichia coli [2] and in the assay on Staphylococcus aureus [3] was 64 µg/mL (≈ 217 µM) in each case.

In general, IC50 refers to the concentration that gives 50% inhibition. With `CC(C)=CCC[C@@]1(C)C=Cc2c(ccc3c2[nH]c2ccc(C=O)cc23)O1`, in the assay on Staphylococcus aureus [4], the 50% inhibitory concentration (IC50) was 11.7 µM.

In the case of `Cc1cccc2c3c([nH]c12)C(=O)/C(=C/c1ccc(Br)cc1)CC3`, the zone of inhibition at 25 µg/mL (in assay [5]; in the assay with Proteus vulgaris; in the assay on Escherichia coli [6]) was 15 mm throughout.

For `COc1ccc2c(c1)[nH]c1cc(OC)c(C(=O)O)cc12` [CLAUSINE K], the “inhibition zone (IZ)” value in the assay on Pythium was found to be 16.2 mm.

As a reminder, the MIC90 is an inhibitory concentration at the 90% level, which refers to growth in some studies and to a panel of isolates in others. `Cc1cc2c([nH]c3ccc(O)cc32)c2c1OC(C)(C)C=C2`: the MIC90 is greater than 100 µg/mL in the assay on Pseudomonas aeruginosa [7], 3.12 µg/mL (≈ 11.2 µM) in the assay with Staphylococcus aureus [8], 3.12 µg/mL (≈ 11.2 µM) with Klebsiella pneumoniae [9] and greater than 100 µg/mL in the assay on Escherichia coli [10].

`COCn1c2c(c3cccc(C)c31)Cc1cocc1C2`: the MIC with Candida tropicalis, in the assay with Candida albicans [11] and in the assay with Aspergillus fumigatus was 7.81 µg/mL (≈ 29.2 µM) in each case.

`Brc1ccc2[nH]c3c(c2c1)CCCC31CCCn2ccnc21` (stereo not given): the MIC (in the assay on Mucor hiemalis; in the assay on Bacillus subtilis [12]; in the assay on Rhodotorula glutinis; in [13]; with Staphylococcus aureus [14]; in assay [15]) was 66.6 µM (≈ 23.7 µg/mL) in each case.

Take `COCn1c2c(c3cc(F)ccc31)Cc1cocc1C2`: the minimum inhibitory concentration (MIC) in the assay with Candida tropicalis, in the assay with Candida albicans [11] and in the assay with Aspergillus fumigatus was 7.81 µg/mL (≈ 28.8 µM) throughout.

Consider `COC(=O)c1cc2c(cc1OC)[nH]c1ccccc12` [CLAUSINE L], for which the “inhibition zone (IZ)” value in the assay on Pythium is given as 10.2 mm.

In the case of `CC(C)=CCCC1(C)C=Cc2c(c(C)cc3c2[nH]c2cc(O)ccc23)O1` (stereo not given), the MIC90 in the assay on Pseudomonas aeruginosa [7] is greater than 100 µg/mL; in the assay on Staphylococcus aureus [8] it was 3.12 µg/mL (≈ 8.98 µM); with Klebsiella pneumoniae [9], 3.12 µg/mL (≈ 8.98 µM); in the assay with Escherichia coli [10], greater than 100 µg/mL.

As for `NC[C@H]1O[C@H](O[C@H]2[C@H](O)[C@@H](O[C@H]3O[C@H](CO)[C@@H](O)[C@H](N)[C@H]3O)[C@H](N)C[C@@H]2N)[C@H](O)[C@@H](O)[C@@H]1O` [KANAMYCIN], the MIC90 with Staphylococcus aureus [8] and in the assay with Klebsiella pneumoniae [9] was 12.5 µg/mL (≈ 25.8 µM) throughout.

For `C/C(=N/C(=S)C(=S)n1cc(CC(=O)O)c2ccccc21)C1CCCc2c1[nH]c1c([N+](=O)[O-])cc([N+](=O)[O-])cc21` (stereo not given), the MIC with Bacillus subtilis [16], with Pasteurella multocida, with Staphylococcus aureus [17] and in the assay on Escherichia coli [18] was 0.056 µg/mL (≈ 0.0994 µM) in each case.

`COc1cc(C=O)c(CC=C(C)C)c2c1[nH]c1ccccc12` [EKEBERGININE]: the MIC with Staphylococcus aureus [19], in the assay with Vibrio cholerae and with Shigella flexneri was 32 µg/mL (≈ 109 µM) each time.

Consider `COc1ccc2[nH]c3c4c(c(C)cc3c2c1)OC(C)(C)C=C4` [KOENIMBINE], for which the concentration for half-maximal inhibition (IC50) with Staphylococcus aureus [4] amounted to 17 µM.

For `O=C(O)c1cn(C2CC2)c2cc(N3CCNCC3)c(F)cc2c1=O` [CIPROFLOXACIN], the “inhibition zone (IZ)” value in the assay on Bacillus subtilis [20] and with Staphylococcus aureus [21] was 15 mm throughout.

`CSC(=S)NNC(=O)c1ccc(-n2c3c(c4ccccc42)CCCC3)cc1`: the MIC in the assay on Pseudomonas aeruginosa [22], in the assay with Staphylococcus aureus [23], in the assay on Candida albicans [24], with Klebsiella pneumoniae [25], in the assay with Escherichia coli [26] and with Micrococcus luteus was 25 µg/mL throughout. Moreover, the MIC in the assay on Priestia megaterium and in the assay on Bacillus subtilis [27] was 25 µg/mL throughout.

In the case of `COc1cc2[nH]c3c4c(c(C)cc3c2cc1OC)OC(C)(C)C=C4`, the IC50 in the assay on Staphylococcus aureus [4] was 20.9 µM.
